Source: ChEMBL document CHEMBL5512637, “Development of Membrane-Targeting Fluorescent 2-Phenyl-1H-phenanthro[9,10-d]imidazole-Antimicrobial Peptide Mimic Conjugates against Methicillin-Resistant Staphylococcus aureus” (J Med Chem, 2024)
Activity calls are given as the source filed them. No cut-off for these calls is given here.

What was measured:
[1] = test system: Staphylococcus aureus; assay: Bactericidal activity against Staphylococcus aureus ATCC 29213 at 8 times MIC incubated upto 8 hrs by time kill assay; assay type: functional, organism-based
[2] = test system: Staphylococcus aureus; assay: Bactericidal activity against methicillin-resistant Staphylococcus aureus clinical isolate M-4 at 8 times MIC incubated upto 8 hrs by time kill assay; assay type: functional, organism-based
[3] = test system: Staphylococcus aureus; assay: Antibacterial activity against methicillin-resistant Staphylococcus aureus clinical isolate M-4 infected in KM mouse assessed as survival rate of bacteria at 5 mg/kg, sc measured after 24 hrs relative to control; assay type: functional
[4] = Toxicity in KM mouse infected with methicillin-resistant Staphylococcus aureus clinical isolate M-4 assessed as histopathological abnormality in heart at 5 mg/kg, sc measured after 24 hrs by H and E staining based analysis; assay type: organism-based; conditions: in vivo
[5] = Toxicity in KM mouse infected with methicillin-resistant Staphylococcus aureus clinical isolate M-4 assessed as histopathological abnormality in liver at 5 mg/kg, sc measured after 24 hrs by H and E staining based analysis; assay type: organism-based; conditions: in vivo
[6] = Toxicity in KM mouse infected with methicillin-resistant Staphylococcus aureus clinical isolate M-4 assessed as histopathological abnormality in spleen at 5 mg/kg, sc measured after 24 hrs by H and E staining based analysis; assay type: organism-based; conditions: in vivo
[7] = Toxicity in KM mouse infected with methicillin-resistant Staphylococcus aureus clinical isolate M-4 assessed as histopathological abnormality in lungs at 5 mg/kg, sc measured after 24 hrs by H and E staining based analysis; assay type: organism-based; conditions: in vivo
[8] = Toxicity in KM mouse infected with methicillin-resistant Staphylococcus aureus clinical isolate M-4 assessed as histopathological abnormality in kidneys at 5 mg/kg, sc measured after 24 hrs by H and E staining based analysis; assay type: organism-based; conditions: in vivo
[9] = test system: Staphylococcus aureus; assay: Antibacterial activity against Staphylococcus aureus ATCC 29213 incubated for 16 to 18 hrs CLSI based by microbroth dilution assay; assay type: functional; conditions: time 16-18 hrs
[10] = test system: Escherichia coli; assay: Antibacterial activity against Escherichia coli ATCC 25922 incubated for 16 to 18 hrs CLSI based by microbroth dilution assay; assay type: functional; conditions: time 16-18 hrs
[11] = test system: Staphylococcus aureus; assay: Antibacterial activity against methicillin-resistant Staphylococcus aureus clinical isolate M-1 incubated for 16 to 18 hrs CLSI based by microbroth dilution assay; assay type: functional; conditions: time 16-18 hrs
[12] = test system: Staphylococcus aureus; assay: Antibacterial activity against methicillin-resistant Staphylococcus aureus clinical isolate M-2 incubated for 16 to 18 hrs CLSI based by microbroth dilution assay; assay type: functional; conditions: time 16-18 hrs
[13] = test system: Staphylococcus aureus; assay: Antibacterial activity against methicillin-resistant Staphylococcus aureus clinical isolate M-3 incubated for 16 to 18 hrs CLSI based by microbroth dilution assay; assay type: functional; conditions: time 16-18 hrs
[14] = test system: Staphylococcus aureus; assay: Antibacterial activity against methicillin-resistant Staphylococcus aureus clinical isolate M-4 incubated for 16 to 18 hrs CLSI based by microbroth dilution assay; assay type: functional; conditions: time 16-18 hrs
[15] = test system: Staphylococcus aureus; assay: Antibacterial activity against methicillin-resistant Staphylococcus aureus clinical isolate M-5 incubated for 16 to 18 hrs CLSI based by microbroth dilution assay; assay type: functional; conditions: time 16-18 hrs
[16] = test system: Staphylococcus aureus; assay: Antibacterial activity against methicillin-resistant Staphylococcus aureus clinical isolate M-6 incubated for 16 to 18 hrs CLSI based by microbroth dilution assay; assay type: functional; conditions: time 16-18 hrs
[17] = test system: Staphylococcus aureus; assay: Antibacterial activity against methicillin-resistant Staphylococcus aureus clinical isolate M-7 incubated for 16 to 18 hrs CLSI based by microbroth dilution assay; assay type: functional; conditions: time 16-18 hrs
[18] = test system: Staphylococcus aureus; assay: Antibacterial activity against methicillin-resistant Staphylococcus aureus clinical isolate M-8 incubated for 16 to 18 hrs CLSI based by microbroth dilution assay; assay type: functional; conditions: time 16-18 hrs
[19] = test system: Staphylococcus aureus; assay: Antibacterial activity against methicillin-resistant Staphylococcus aureus clinical isolate M-9 incubated for 16 to 18 hrs CLSI based by microbroth dilution assay; assay type: functional; conditions: time 16-18 hrs
[20] = test system: Staphylococcus aureus; assay: Antibacterial activity against methicillin-resistant Staphylococcus aureus clinical isolate M-10 incubated for 16 to 18 hrs CLSI based by microbroth dilution assay; assay type: functional; conditions: time 16-18 hrs
[21] = Hemolytic activity in sheep erythrocytes incubated for 1 hr by absorbance based assay; assay type: toxicity, cell-based, Ovis aries, Erythrocyte
[22] = Selectivity index, ratio of HC50 for sheep erythrocytes to MIC for Staphylococcus aureus ATCC 29213; assay type: toxicity; conditions: read-out: Selectivity Index
[23] = test system: Staphylococcus aureus; assay: Bactericidal activity against Staphylococcus aureus ATCC 29213 assessed as fluorescent signal at MIC incubated for 20 mins; assay type: functional, organism-based
[24] = test system: Staphylococcus aureus; assay: Bactericidal activity against Staphylococcus aureus ATCC 29213 assessed as increase in fluorescence intensity at MIC incubated for 180 mins; assay type: functional, organism-based

## CN[C@H](CC(C)C)C(=O)N[C@H]1C(=O)N[C@@H](CC(N)=O)C(=O)N[C@H]2C(=O)N[C@H]3C(=O)N[C@H](C(=O)N[C@H](C(=O)O)c4cc(O)cc(O)c4-c4cc3ccc4O)[C@H](O)c3ccc(c(Cl)c3)Oc3cc2cc(c3O[C@@H]2O[C@H](CO)[C@@H](O)[C@H](O)[C@H]2O[C@H]2C[C@](C)(N)[C@H](O)[C@H](C)O2)Oc2ccc(cc2Cl)[C@H]1O [VANCOMYCIN]
[1]
  Activity: Active
[2]
  Activity: Active
[3]
  survival at 5 mg/kg: 2.15%
[4]
  Activity: Non-Toxic
[5]
  Activity: Non-Toxic
[6]
  Activity: Non-Toxic
[7]
  Activity: Non-Toxic
[8]
  Activity: Non-Toxic

## CCCCCNC(=O)C[N+](C)(C)CCCn1c(-c2ccc(N(C)C)cc2)nc2c3ccccc3c3ccccc3c21.[Br-]
[9]
  MIC: 8 µg/mL
[10]
  MIC: 64 µg/mL
[11]
  MIC: 8 µg/mL
[12]
  MIC: 8 µg/mL
[13]
  MIC: 8 µg/mL
[14]
  MIC: 4 µg/mL
[15]
  MIC: 8 µg/mL
[16]
  MIC: 8 µg/mL
[17]
  MIC: 4 µg/mL
[18]
  MIC: 8 µg/mL
[19]
  MIC: 4 µg/mL
[20]
  MIC: 8 µg/mL
[21]
  HC50 at 1 h: > 640 µg/mL
[22]
  selectivity ratio: > 80
[23]
  Activity: Active

## CN(C)c1ccc(-c2nc3c4ccccc4c4ccccc4c3n2CCCCBr)cc1
[9]
  MIC: > 64 µg/mL
[10]
  MIC: > 64 µg/mL
[11]
  MIC: > 64 µg/mL
[12]
  MIC: > 64 µg/mL
[13]
  MIC: > 64 µg/mL
[14]
  MIC: > 64 µg/mL
[15]
  MIC: > 64 µg/mL
[16]
  MIC: > 64 µg/mL
[17]
  MIC: > 64 µg/mL
[18]
  MIC: > 64 µg/mL
[19]
  MIC: > 64 µg/mL
[20]
  MIC: > 64 µg/mL
[24]
  Activity: inactive
